The conditions of data set [1]: solutions of pH greater than six; cited from earlier work.
The next data set has as its system Escherichia coli. Kind of data set: Efficacy in the treatment of Escherichia coli infected chickens. Type of data set: in vivo, broiler chickens. The conditions noted are these: oral via drinking water, three consecutive days, recorded over ten days following treatment. From the text: The aim of this study was to evaluate the effect of a treatment with a composition in accordance with the present invention on the mortality and clinical signs of chickens naturally infected by Escherichia coli, and to compare the efficacy of this treatment with the efficacy of a treatment with a composition containing only the antibiotic.
10 000 broiler chickens aged 1 day were used for the experiment. The birds were infected by natural infection by Escherichia coli.
The birds were then divided into 2 equal groups of 5 000 birds each. The first group was treated with a composition containing only enrofloxacin. The second group was treated with the composition of Example 1 of the present invention, containing both enrofloxacin and bromhexine-HCl. Thus, 1 ml of composition contained either 200 mg of enrofloxacin (composition for the treatment of the first group) or 200 mg of enrofloxacin and 10 mg of bromhexine-HCl (composition for the treatment of the second group).
For both groups, the treatment was made orally, for three consecutive days, and using the drinking water, at a dose of 1 ml of active composition per 4 litres of drinking water.
To assess the efficacy of the treatment, the mortality and body weight of the animals were recorded for each group over a period of ten days following the treatment.

In another data set the test system is pneumonia infection. The experiment in a line: Efficacy in the treatment of calves suffering from a pneumonia infection. The conditions noted are these: intramuscular injection once a day for four consecutive days, results after 5 days. The class given is in vivo. From the text: The aim of this study was to evaluate the effect of a treatment with a composition in accordance with the present invention on the mortality and clinical signs of calves suffering from a pneumonia infection, and to compare the efficacy of this treatment with the efficacy of a treatment with a composition containing only the antibiotic.
20 calves aged 1 to 4 months were used for the experiment. The animals were suffering from a pneumonia infection, characterized by severe respiratory disorders including coughing, rale and increased body temperature (measured between +39.5°C and +41°C).
The calves were divided into 2 equal groups of 10 animals each. The first group was treated with a composition containing only enrofloxacin. The second group was treated with the composition of Example 1 of the present invention, i.e. containing both enrofloxacin and bromhexine-HCl. Thus, 1 ml of composition contained either 200 mg of enrofloxacin (composition for the treatment of the first group) or 200 mg of enrofloxacin and 10 mg of bromhexine-HCl (composition for the treatment of the second group).
For both groups, the treatment was made by intramuscular injection, once a day and for four consecutive days, at a dose of 1 ml of active composition per 80 kg of animal body weight.
To assess the efficacy of the treatment, the mortality and body temperature of the animals were recorded for each group over a period of ten days following the treatment.

Regarding `CN(Cc1cc(Br)cc(Br)c1N)C1CCCCC1.Cl` [Bromhexine-HCl, N-(2-amino-3,5-dibromobenzyl)-N-methyl-cyclohexylamine hydrochloride], in data set [1], the precipitation in solutions result is given as “precipitate”.
For `CCN1CCN(c2cc3c(cc2F)c(=O)c(C(=O)O)cn3C2CC2)CC1` [Enrofloxacine, 1-cyclopropyl-7-(4-ethyl-1-piperazinyl)-6-fluoro-1,4-dihydro-4-oxo-3-quinoline carboxylic acid], the results for the Mortality % in the data set on Escherichia coli (1 ml composition per 4 litres) and with pneumonia infection (1 ml per 80 kg body weight) were 2.23% and 10%, respectively. The Mortality dead birds in the data set with Escherichia coli (1 ml composition per 4 litres, 5000 birds per group) was 113/5000. The Weight g/bird with Escherichia coli stood at 1810 g/bird. Moreover, the Mortality dead animals in the data set on pneumonia infection (1 ml per 80 kg body weight, 10 calves per group) is 1/10. Also, the Body temperature result with pneumonia infection is “over 41.5 °C”.
